Where a name gives a salt, the structure may show the parent alone.
How the values were obtained:
[1] = test system: 18C-18D duplex (RNase H substrate of HIV-1 RT); assay: RT-induced RNase H cleavage of the 18C-18D duplex (gel assay); format: biochemical; conditions: for hierarchy of inhibition of RT-induced cleavage: 18C-18D duplex, aminoglycosides 2.0 mM, FIG. 2b, 2c
Description: The second model oligonucleotide was a 18mer chimeric duplex (18C-18D). 18C-18D mimics a RNase H substrate during plus-strand strong-stop synthesis (FIG. 2a), which occurs following minus-strand DNA synthesis. Fedoroff, O. Y., et. al., B. R. Structural variation among retroviral primer-DNA junctions: Solution structure of the HIV-1 (−)-strand Okazaki fragment r(gcca)d(CTGC)-d(GCAGTGGC), Biochemistry 35,11070-11080 (1996). For the 18C-18D duplex, RT cleaves the RNA portion of the chimeric strand (18C) opposite the DNA strand (18D) at only a single site (FIGS. 2a, b), in marked contrast to the three cleavage sites observed in the 18C-18Rduplex. This unique cleavage site lies between base positions +1 and +2 (counting from the RNA-DNA junction in the 5′ direction on the cleaved chimeric strand). Furfine, E. S. & Reardon, J. E., Human immunodeficiency virus reverse transcriptase ribonuclease H: Specificity of tRNA(Lys3)-primer excision, Biochemistry 30, 7041-7046 (1991); Smith, J. S. & Roth, M. J. Specificity of human immunodeficiency virus-1 reverse transcriptase-associated ribonuclease H in removal of the minus-strand primer tRNA(Lys3), J. Biol. Chem. 267, 15071-15079 (1992). […] As noted above for the 18C-18R duplex, this hierarchy of cleavage inhibition correlates with the relative binding affinities of the three ligands for the 18C-18D duplex.
Recombinant HIV-1 RT p66 was isolated from Escherichia coli JM 109. Pandey, V. N. et al, Role of methionine 184 of human immunodeficiency virus type-1 reverse transcriptase in the polymerase function and fidelity of DNA synthesis, Biochemistry 35, 2168-2179 (1996). The 18C and 18R oligonucleotides were purchased from Dharmacon Research, Inc. (Lafayette, Colo.). The 18D oligonucleotide was obtained from Integrated DNA Technologies, Inc. (Coralville, Iowa). Neomycin trisulfate trihydrate, the free base of tobramycin, paromomycin sulfate, and kanamycin B sulfate were obtained from Fluka, while kanamycin A monosulfate and ribostamycin sulfate dihydrate were obtained from Sigma.
The RNase H activity of RT was assayed in a 10 μl reaction mixture containing 110 mM PIPES (pH 6.0) and 5 mM MgCl2. Ten pmol of either 18C or 18R were ^32P-labeled at the 5′ end using T4 polynucleotide kinase. For the cleavage experiments, different aminoglycosides were mixed with 0.5 μM of target duplex. A small amount of RT, 0.1 μg, was then added to initiate the cleavage reaction. After incubation at 37° C. for 30 min, the reaction was stopped by addition of 3 M urea containing a mixture of bromophenol blue and xylene cyanol. Denaturation of the 18C-18R duplex required the addition of 5 M urea as well as heating at 95° C. for 5 min prior to gel loading. The cleavage products were resolved in a 10% polyacrylamide gel containing 8 M urea. The gels were subsequently analyzed using a phosphoimager (Molecular Dynamics, Inc.).
To determine the nature of the aminoglycoside-induced inhibition of RT-catalyzed RNase H cleavage, the impact of RT concentration on neomycin-induced inhibition was examined. […] In the presence of 1 mM neomycin, increasing the concentrations of RT overcomes the RNase H inhibitory effect of the drug.

18C-18D duplex = assay: Isothermal titration calorimetry (ITC), 18C-18D duplex; format: binding, HIV-1; conditions: for ΔHb (binding enthalpy): 18C-18D duplex, ITC at 25° C.
Procedure: Isothermal calorimetric measurements were performed at 25° C. on a MicroCal VP-ITC (MicroCal, Inc., Northampton, Mass.). In a typical experiment, 5 μl aliquots of 500 μM aminoglycoside were injected from a 250 μl rotating (430 RPM) syringe into an isothermal sample chamber containing 1.31 mL of either a 18C-18R solution that was 10 μM in duplex or a 18C-18D solution that was 15 μM in duplex. Each experiment of this type was accompanied by the corresponding control experiment in which 5 μL aliquots of 500 μM drug were injected into a solution of buffer alone. The duration of each injection was 5 seconds and the delay between injections was 240 seconds. The initial delay prior to the first injection was 60 seconds. Each injection generated a heat burst curve (μcal/sec vs. sec). The area under each curve was determined by integration [using the Origin version 5.0 software (MicroCal, Inc., Northampton, Mass.)] to obtain a measure of the heat associated with that injection. The heat associated with each drug-buffer injection was subtracted from the corresponding heat associated with each drug-duplex injection to yield the heat of drug binding for that injection. The calorimeter was calibrated both electronically and chemically. Pilch, D. S., Kirolos, M. A., Liu, X., Plum, G. E. & Breslauer, K. J. Berenil [1,3-bis-(4′-amidinophenyl)triazene] binding to DNA duplexes and to a RNA duplex: Evidence for both intercalative and minor groove binding properties, Biochemistry 34, 9962-9976 (1995). All duplex solutions were preheated for 5 minutes at 85° C. and then cooled to room temperature prior to their use in the ITC experiments. The buffer solutions for the ITC experiments contained 10 mM PIPES (pH 6.0) and 5 mM MgCl2.
Table 1 summarizes the apparent association constants at 25° C. that were calculated using equations (1)-(3) for neomycin and paromomycin binding to the 18C-18R and 18C-18D duplexes. The drug binding enthalpies (ΔHb) required for extrapolation of the binding constants at Tm to common reference temperature of 25° C. using equation (3) were determined using isothermal titration calorinietry (ITC). […] Each of the heat burst curves in FIG. 4 corresponds to a single drug injection, with the seven injections resulting in a final drug to duplex ratio (rdup) of either 0.83 (when 18C-18D served as the target duplex) or 1.25 (when 18C-18R served as the target duplex). The areas under these heat burst curves were determined by integration to yield the associated injection heats. For each titration, the seven injection heats were similar in magnitude, an observation consistent with all of the injected drug being bound by the host duplex. These injection heats were corrected by subtraction of the corresponding dilution heats derived from the injection of identical amounts of drug into buffer alone. The resulting corrected injection heats then were divided by the total concentration of injected drug and averaged to yield the ΔHb values listed in Table 1.

Row | Compound | nature of inhibition of RNase H activity of RT ([1]; 1 mM neomycin, increasing RT 0.1-2.7 μg, FIG. 2d) | hierarchy of inhibition of RT-induced cleavage [1] | neomycin required for 50% inhibition of RT-induced cleavage, 18C-18D relative to 18C-18R ([1]; comparison of FIGS. 1c and 2c) | ΔHb (binding enthalpy) (18C-18D duplex; listed as Neomycin, trisulfate trihydrate) | ΔHb (binding enthalpy) (18C-18D duplex; trisulfate trihydrate) | binding stoichiometry (18C-18D duplex; ITC, 18C-18D) | ΔHb (binding enthalpy) (18C-18D duplex) | ΔHb (binding enthalpy) (18C-18D duplex; listed as Paromomycin)
1 | Neomycin trisulfate trihydrate | competitive | neomycin>paromomycin>ribostamycin | approximately 420 times | -6.1 ± 0.1 kcal/mol | -6.1 kcal/mol | three | – | –
2 | NC[C@@H]1O[C@H](O[C@H]2[C@@H](O)[C@H](O[C@@H]3[C@@H](O)[C@H](N)C[C@H](N)[C@H]3O[C@H]3O[C@H](CO)[C@@H](O)[C@H](O)[C@H]3N)O[C@@H]2CO)[C@H](N)[C@@H](O)[C@@H]1O [paromomycin, paromomycin sulfate] | – | neomycin>paromomycin>ribostamycin | – | – | – | – | -3.6 kcal/mol | -3.6 ± 0.1 kcal/mol

From patent US20030069194A1, “Inhibition of viral replication by targeting RNA-DNA complexes” (priority 2001, published 2003)
